From patent US20030143713A1, “Novel glycosidase inhibitors and their pharmacological uses, in particular for treating diabetes” (priority 1999, published 2003) come the findings set out here.

In this experiment the target is T1, isoenzyme 1 of barley α-amylase (AMY1) (Hordeum vulgare, UniProt P00693).
T1 construct: made in house; host or cells: Pichia pastoris
Briefly: X-ray crystal structure of the AMY1/spermidine complex (cocrystallisation with spermidine, then soaking in acarbose). The experiment is classed as binding. How it is done:
The 9 C-terminal residues of recombinant isoenzyme 1 of barley α-amylase (AMY1) were cleaved in order to obtain a C-terminal end of the same length as that of isoenzyme 2 (AMY2). The protein was then over-expressed in Pischia pastoris, purified and concentrated.
The protein preparation used for crystallisation has a concentration of 5.1 mg/ml and is in a solution of 10 mM MES (2-[N]-Morpholino ethane sulphonic acid), 100 mM CaCl2, 0.02% NaN3, pH 6.7.
The crystals were obtained by cocrystallisation thanks to the vapour diffusion principle using the hanging droplet technique. To do this, 2.5 μl of polyethylene glycol 8000 at 21% as a precipitating agent and 0.5 μl of a 0.1M solution of spermidine as a crystallisation additive were added to 2 μl of the protein solution described previously. This droplet was equilibrated at 19° C. against a reservoir containing 500 μl of polyethylene glycol 8000 at 21%.
The crystals were then immersed for 20 hours in a polyethylene glycol 8000 solution at 21% containing 10 mM of acarbose (a pseudo-tetrasaccharide).
Collection of the diffraction data was carried out using an X-ray generator (CuKα radiation—wavelength 1.5418 Å) with a rotating anode (Nonius 581) operating at 40 kV and 90 mA (i.e. 3.6 kW) with a graphite monochromator coupled to a two-dimensional detector of Image Plate type (MarResearch 345) of 34.5 cm in diameter.
A set of 180 diffraction exposures (each corresponding to 1° of oscillation of the crystal) was collected at 15° C., the crystal being capillary mounted and positioned at 120 mm from the detector, with an exposure time of the crystal to the X-rays of 500s per exposure. The highest resolution of this set of data is 2.44 Å.
We then determined the space group as being a P212121. The asymmetrical unit is composed of a molecule of the AMY1/spermidine complex, which corresponds to a volume of solvent in the lattice of 53%.
Subsequent processing of the data was carried out using the CCP4 suite of programs (CCP4, 1994).
The molecular replacement method was used thanks to the AmoRe software (Navaza, 1994) using the structure of isoenzyme 2 of barley α-amylase (AMY2-accession code PDB: 1AMY) (Kadziola et al., 1994 and Kadziola et al., 1998) as a guide model because of the significant sequence homology (80%) between this initial model and our protein of interest (AMY1). Refinement phases using molecular dynamic techniques (simulated annealing—Brünger et al., 1990) were carried out with CNS software version 0.9a (Brünger et al., 1998) alternating with model manipulations. […] In order to do this, 2Fo-Fc and Fo-Fc electronic density maps were calculated. […]

[1] abbreviates: experimental AMY1/spermidine complex.

T1 sequence (P00693 25-429 limits assumed): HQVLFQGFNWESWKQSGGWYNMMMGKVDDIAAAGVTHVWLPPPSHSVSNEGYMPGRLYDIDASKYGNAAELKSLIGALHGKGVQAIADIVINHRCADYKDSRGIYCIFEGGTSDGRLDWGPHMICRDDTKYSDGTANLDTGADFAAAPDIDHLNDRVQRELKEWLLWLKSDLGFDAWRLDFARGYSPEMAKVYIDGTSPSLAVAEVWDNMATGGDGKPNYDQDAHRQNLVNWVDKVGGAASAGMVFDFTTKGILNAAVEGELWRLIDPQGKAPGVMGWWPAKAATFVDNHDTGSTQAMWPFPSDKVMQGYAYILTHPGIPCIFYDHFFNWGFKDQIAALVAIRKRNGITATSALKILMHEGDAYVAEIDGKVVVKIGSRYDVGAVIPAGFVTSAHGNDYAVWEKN

Consider `NCCCCNCCCN` [spermidine], for which, under setting [1], the “Direct hydrogen bonds with a residue” value was determined as 5 and the “Direct hydrogen bonds with a water molecule” value worked out at 4. The “total of H bonds stabilising the complex” value (experimental AMY1/spermidine structure) turned out to be 9. For the same molecule, under “in the presence of the two types of inhibitors (spermidine and acarbose)”, the “affinity for the enzyme compared with acarbose type inhibitors” value is “significantly greater affinity for the enzyme in comparison to the acarbose type inhibitors”.
